These results are taken from patent US20130031644A1, “AUTONOMOUS LUX REPORTER SYSTEM AND METHODS OF USE” (University of Tennessee Research Foundation, priority 2011, published 2013).

Data set [1] addresses T1, bacterial luciferase (lux) in protein extracts of HEK293 cells (Photorhabdus luminescens, UniProt P19839).
T1 construct: expressed in transfected cells; host or cells: HEK293 cells stably carrying pLuxAB (luxA-IRES-luxB, CMV promoter), co-transfected with pLuxCDEfrp:WT or pLuxCDEfrp:CO; The soluble protein extract was made by freeze/thaw
T1 sequence (P19839 1-360): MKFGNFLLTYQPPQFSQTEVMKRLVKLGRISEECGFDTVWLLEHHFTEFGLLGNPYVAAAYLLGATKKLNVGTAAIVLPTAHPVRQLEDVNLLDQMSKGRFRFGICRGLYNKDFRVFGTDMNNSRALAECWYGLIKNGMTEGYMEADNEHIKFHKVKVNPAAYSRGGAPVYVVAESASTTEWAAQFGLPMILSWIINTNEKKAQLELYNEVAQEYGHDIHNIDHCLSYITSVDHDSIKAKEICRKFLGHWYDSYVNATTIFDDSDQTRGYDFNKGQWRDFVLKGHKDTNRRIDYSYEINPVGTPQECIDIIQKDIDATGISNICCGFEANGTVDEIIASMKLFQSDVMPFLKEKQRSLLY
T1 sequence (P19840 1-327 partner): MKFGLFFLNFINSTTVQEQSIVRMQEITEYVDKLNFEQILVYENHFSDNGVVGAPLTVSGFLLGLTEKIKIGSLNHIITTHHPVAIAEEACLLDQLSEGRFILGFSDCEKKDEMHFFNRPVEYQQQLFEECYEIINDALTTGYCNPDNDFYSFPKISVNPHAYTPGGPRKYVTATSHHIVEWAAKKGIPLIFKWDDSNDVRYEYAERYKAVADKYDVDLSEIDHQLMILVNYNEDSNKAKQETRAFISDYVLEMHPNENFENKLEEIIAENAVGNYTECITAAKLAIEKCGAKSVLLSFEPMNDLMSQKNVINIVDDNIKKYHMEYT
The experiment in a line: In vitro supplementation assays of lux cell extracts (oxidoreductase, aldehyde). It counts as biochemical, P. luminescens. Conditions: 0.002% (w/v) n-decanal. How it is done: Bioluminescence was measured using an FB 14 luminometer (Zylux) with a 1 sec integration time. To prepare the sample for in vitro bioluminescent measurement, 400 μl of the isolated protein extract was combined with 500 μl of either oxidoreductase supplemented light assay solution containing 0.1 mM NAD(P)H, 4 μM FMN, 0.2% (w/v) BSA and 1 U of oxidoreductase protein isolated from V. fischeri (Roche), or oxidoreductase deficient light assay solution (distilled water substituted for the 1 U of oxidoreductase protein). Following the initial bioluminescent reading, samples were amended with 0.002% (w/v) n-decanal and the readings were continued to determine if additional aldehyde could increase light output. All bioluminescent signals were normalized to total protein concentration as determined by BCA protein assay (Pierce) and reported as relative light units (RLU)/mg total protein. […] A 15 μl aliquot of cells was removed and counted using a hemocytometer to allow all values to be normalized to viable cell counts. […]
Total protein was extracted from co-transfected pLuxCDEfrp:CO/pLuxAB or pLuxCDEfrp:WT/pLuxAB cell lines or the pTa2AluxAB transfected cell line using a freeze/thaw procedure. […] Bioluminescence was measured using an FB14 luminometer (Zylux) with a 1 sec integration time. […]

Data set [2] deals with constitutively bioluminescent HEK293 cells expressing pLuxCDEfrp/pLuxAB. The experiment in a line: Bioluminescent measurement in response to toxic chemical exposure (n-decanal). Format: cell-based, human. How it is done:
To determine the ability of constitutively bioluminescent HEK293 cells to function as a bioreporter for toxic chemical exposure, cells stably expressing pLuxCDEfrp/pLuxAB were exposed to increasing concentrations of the cytotoxic aldehyde n-decanal. HEK293 cells previously determined to be capable of continuous bioluminescent output from the expression of the pLuxCDEfrp/pLuxAB plasmids were passaged into 75 cm^2 tissue culture flasks (Corning) and grown at 37° C. and 5% CO^2 until they reached 90% confluence. Cells were then harvested by trypsinization and cell number was determined as the average of two counts using a hemocytometer. Approximately 1×10^6 cells per well were plated in all wells in opaque 24-well tissue culture plates (Costar) in DMEM without phenol red and supplemented with 10% fetal bovine serum, 0.01 mM non-essential amino acids, and 0.01 mM sodium pyruvate. Triplicate wells were treated with serial dilutions of n-decanal ranging from 0.1% to 1×10^−5%, with a control set receiving no n-decanal amendment to determine maximal bioluminescent expression. Photon counts were then recorded using an IVIS Lumina in vivo imaging system and analyzed with Living Image 3.0 software (Caliper Life Sciences). The change in light output over time was determined in photons (p)/sec/cm^2/steridian (sr) for each well using integration times of […] once every hour for 24 h and reported as the average of three runs with the standard error of the mean.

The conditions of data set [3]: native state, 37° C.; cited from earlier work.
In data set [4] the test system is luxC gene transcription under the tetracycline response element in HEK293 cells (pLuxAB/pLuxCDEfrp-TET). The experiment in a line: rt-PCR of luxC transcription in response to doxycycline. Format: cell-based, human. To be noted: for average CT value for luxC detection: 24 h, average of eleven cell lines; for increase in luxC transcription / reduction of cycles to reach CT: best performing cell line. The procedure:
Twenty-four h post-transfection, the medium was removed and replaced with complete medium supplemented with the appropriate antibiotic. Selection of successfully transfected clones was performed by refreshing selective medium every 4-5 d until all untransfected cells had died. At this time, colonies of transfected cells were removed by scraping, transferred to individual 25 cm^2 cell culture flasks, and grown in complete medium supplemented with the appropriate antibiotics. To screen the resulting cell lines for the ability to regulate luxC transcription in response to doxycycline, relative reverse transcription PCR (rt-PCR) was used to determine the level of luxC mRNA present 24 h following the addition of 0, 10, or 100 ng doxycycline/ml to the complete growth medium. To this end, each isolated cell line was split into 4 25 cm^2 cell culture flasks upon reaching 80% confluence. Cells were then grown at 37° C. and 5% CO2 until again reaching ˜80% confluence. At this point, one of the flasks was routinely passaged to maintain a stock of cells for future use. The remaining 3 flasks were spiked with 0, 10, or 100 ng doxycycline/ml and returned to the incubator. Twenty-four h post doxycycline addition, cells were harvested and total RNA was isolated using an RNeasy isolation kit (Qiagen). Isolated RNA was used directly for rt-PCR analysis, and cell lines displaying the greatest range in luxC transcription between 0 ng Doxycycline/ml treatment and either 10 ng or 100 ng doxycycline/ml treatment were selected for bioluminescent screening.

Data set [5] relates to tetracycline responsive lux reporter HEK293 cells (pLuxAB/pLuxCDEfrp-TET). In words: Bioluminescent measurement in response to doxycycline. It counts as cell-based, human. Conditions: for average total flux: 24 h period; for range of total flux over the course of the assay: after 1 h post treatment. How it is done: Cell lines displaying the greatest upregulation of luxC gene transcription following treatment with 10 ng and 100 ng Doxycycline/ml were passaged into 75 cm^2 tissue culture flasks (Corning) and grown at 37° C. and 5% CO2 until they reached 90% confluence. Cells were then harvested by trypsinization and cell number was determined as the average of two counts using a hemocytometer. Approximately 1×10^6 cells per well were plated in triplicate in opaque 24-well tissue culture plates (Costar) in DMEM without phenol red and supplemented with 10% fetal bovine serum, 0.01 mM non-essential amino acids, and 0.01 mM sodium pyruvate. Immediately post plating, wells were spiked with either 0, 10, 100, or 500 ng Doxycycline/ml. Photon counts were then recorded using an IVIS Lumina in vivo imaging system and analyzed with Living Image 3.0 software (Caliper Life Sciences). The change in light output over time was determined in photons (p)/sec (s) for each well by averaging the photon output over integration times of 10 min and reported with the standard error of the mean.

For `CCCCCCCCCC=O` [n-decanal], the “increase in light output” value in data set [1] (extracts of cells with codon-optimized genes) was 58 fold; in data set [1] (extracts of cells with wild-type genes) it was 16 fold. Moreover, in data set [2] (0.01% decanal), the “molar concentration corresponding to the 0.01% treatment” value was ~640 µM. In data set [2] (0.01% decanal, post addition), the “start of intermittent deviation in bioluminescent flux” value is recorded as 40 min. For the same compound, the “time after addition until deleterious effects consistently observable” value in data set [2] (0.01% n-decanal) is recorded as 4 h. In addition, the “effect on bioluminescent output” value is reported as “reduced bioluminescent output immediately following addition” in data set [2] (0.1% n-decanal) and “could not be statistically differentiated from cells not receiving treatment” in data set [2] (remaining treatment levels (below 0.01%, down to 1×10^−5%)). Besides, the “concentration at which the aldehyde became toxic to the HEK293 cell line” value in data set [2] (24 h assay) is recorded as ≥ 0.01%.
As for “firefly luciferase protein: firefly luciferase reporter protein, heat labile under whole animal imaging conditions”, the half life in data set [3] is ≥ 3 min.
For `C[C@H]1c2cccc(O)c2C(=O)C2=C(O)[C@]3(O)C(=O)C(C(N)=O)=C(O)[C@@H](N(C)C)[C@@H]3[C@@H](O)[C@@H]21` [doxycycline], the “average CT value for luxC detection” value in data set [4] (10 ng doxycycline/ml) is 11.9 (±0.7) cycles; in data set [4] (100 ng doxycycline/ml) it was 11.5 (±0.6) cycles. In addition, the “increase in luxC transcription” value in data set [4] (10 ng doxycycline/ml) is “approximately 11 fold”; in data set [4] (100 ng doxycycline/ml), ~20 fold. Moreover, the “reduction of cycles to reach CT” value in data set [4] (10 ng doxycycline/ml) stood at 3.5 cycles; in data set [4] (100 ng doxycycline/ml) it was 4.3 cycles. In addition, the average total flux is on record as 11,500 (±200) p/s in data set [5] (10 ng doxycycline/ml, not significant vs untreated (p=0.06)) and 12,500 (±200) p/s in data set [5] (100 ng doxycycline/ml, significant vs untreated (p=1.1×10^−5)). Further, the “range of total flux over the course of the assay” value in data set [5] (10 ng doxycycline/ml) is reported as 1,900 p/s; in data set [5] (100 ng doxycycline/ml), 1,800 p/s. In addition, in data set [5] (100 ng doxycycline/ml), the “incubation period to significant up regulation in bioluminescent output” value came out at 1 h. The maximum measured flux in data set [5] (induced with 100 ng doxycycline/ml) is 1.3 (±0.03)×10^4 p/s.
